{"source": "paper PMC10244169", "about": "“Psychedelics promote plasticity by directly binding to BDNF receptor TrkB” (Nature Neuroscience, 2023)", "key": {"TrkB (WT) dimerization": {"target": "T1, TrkB (WT) dimerization (Rattus norvegicus, UniProt Q63604)", "T1 construct": "expressed in transfected cells; host or cells: N2a", "test": "Split-luciferase PCA of TrkB dimerization in N2a cells", "type": "cell-based", "settings": "for TrkB dimerization: WT TrkB, N2a cells, 1 nM to 1 µM; for TrkB dimerization (PCA), group mean (vehicle = 100): WT; for Group mean (Mean 2; Control:Vehicle = 100), fig 4f: n=8; for Group mean (Mean 2; Vehicle:vehicle = 100), fig 4d: n=20; for TrkB dimerization time course, group mean (time 0 = 100): TRKB.wt; for Group mean (Mean 2; Vehicle:Vehicle = 100), fig 4e: n=48", "protocol": "Ketanserin, M100907 and TRKB.FC were added to the media 10 min before treatment. The PCA method was performed as previously described[11],[75],[76]. Split humanized Gaussia princeps luciferase (hGLuc) was cloned on the C-terminus of the reporter proteins TrkB (WT and Y433F) and lipid raft Fyn. If the reporter proteins that carry complementary halves of the luciferase interact, the enzyme can refold in its functional conformation and, upon addition of its substrate, produce luminescence proportionally to the amount of reporter proteins interacting at a given time. N2a cells were seeded in 96-well plates with opaque walls and transparent bottom (PerkinElmer, ViewPlate 96). Cells were transfected with Lipofectamine 2000 according to the manufacturer’s instructions 24 h post-plating with the PCA pair plasmids: phGLuc(1C)-TrkB(WT) or the mutant phGLuc(1C)-TrkB(Y433F) and phGLuc(2 C)-TrkB(WT) for the dimerization experiments; phGLuc(1C)-lipid raft Fyn and phGLuc(2C)-TrkB(WT) or phGLuc(2C)-TrkB(Y433F) for the lipid raft localization experiments. Forty-eight hours post transfection, cells were treated (40 min, 37 °C) in phenol red-free Dulbecco’s modified Eagle medium without serum. […] The PCA signal was detected with the substrate for the luciferase, native coelenterazine, which was injected into each well directly in the plate reader at a final concentration of […]."}, "TrkB": {"target": "T2, TrkB (Rattus norvegicus, UniProt Q63604)", "T2 construct": "expressed in transfected cells; host or cells: HEK293T", "test": "biochemical", "type": "binding", "settings": "for Bmax (best-fit, 1b) / h (best-fit, 1b): competition with ^3H-LSD"}, "[1]": {"test_system": "spine density of neuronal cultures", "test": "Spinogenesis in mature neuronal cultures (WT and Y433F^+/−)", "type": "cell-based, mouse", "parameters": "6d: Mean (spinogenesis, spine density) / 6e: Mean (spinogenesis, spine density): unit not given here", "settings": "for spine density: cultures from WT mice, 24 h, 100 nM; for 6e: Mean (spinogenesis, spine density): Vehicle:Vehicle mean 7.05", "protocol": "Spinogenesis experiments were performed similarly to previous studies[12],[13] with modifications. […] In a separate set of experiments to study the effects of extracellular BDNF and 5-HT2A activation, cultures were also pretreated for 10 min with TrkB.FC (200 ng ml^−1) or M100907 (100 nM), respectively. TrkB.FC and M100907 remained in the medium for the rest of the experiment. Twenty-four hours later, coverslips were fixed with 4% PFA, washed with PBS, incubated with blocking buffer (0.1% Triton X-100, 0.05% Tween-20, 10% normal donkey serum, 1% BSA and 0.1% gelatin in PBS) for 1 h at room temperature and then overnight with rabbit anti-MAP2 (Invitrogen, PA5-17646; 1:100) primary antibody at 4 °C. After washing with PBS, coverslips were incubated with CF568-conjugated donkey anti-rabbit (Biotium, 20098; 1:500) for 1 h at room temperature. Another round of PBS washes was followed by incubation with Alexa Fluor 647-conjugated phalloidin (Invitrogen, A22287; 1:40) overnight at 4 °C. Next, coverslips were briefly washed in phosphate buffer (PB) and mounted on slides with ProLong Glass Antifade Mountant (Invitrogen, P36982). We used a Zeiss LSM 880 confocal microscope with an AiryScan GaAsP detector equipped with a PlanApochromat 63×/1.4 NA objective. We used the BP 495–550 + LP 570 AiryScan filter and Zen Black in super-resolution mode for image acquisition. Pinhole size was adapted accordingly, and frame size was set to optimal. Sensors were set to continuous adjustment across the imaging sessions to ensure optimal sensor alignment and signal detection. Raw data were processed into AiryScan images with the autofilter mode on using Zen Blue. Finally, image analysis was performed in ImageJ by experimenters blinded for treatment and genotype. Spines were quantified in 15-µm-long dendrite sections."}, "[2]": {"settings": "Y433F+/- neurons, vehicle mean 6.55"}, "[3]": {"settings": "Y433F+/-:vehicle minus Y433F+/-:treatment"}, "[4]": {"settings": "ext fig 1f, competition curve, n=5"}}}
{"compound": "CN(C)CCc1c[nH]c2cccc(O)c12", "note": "[PSI, psilocin]", "values": [{"measurement": "TrkB dimerization", "setting": "TrkB (WT) dimerization", "value": "fast and long-lasting increase in dimerization"}, {"measurement": "TrkB dimerization (PCA), group mean (vehicle = 100)", "setting": "TrkB (WT) dimerization; 1nM", "value": 146}, {"measurement": "TrkB dimerization (PCA), group mean (vehicle = 100)", "setting": "TrkB (WT) dimerization; 10nM", "value": 133.7}, {"measurement": "TrkB dimerization (PCA), group mean (vehicle = 100)", "setting": "TrkB (WT) dimerization; 100nM", "value": 150.6}, {"measurement": "TrkB dimerization (PCA), group mean (vehicle = 100)", "setting": "TrkB (WT) dimerization; 1uM", "value": 166.1}, {"measurement": "Ki", "setting": "TrkB", "value": "6.73 ± 3.05", "unit": "nM"}, {"measurement": "Bmax (best-fit, 1b)", "setting": "TrkB", "value": 100.9}, {"measurement": "h (best-fit, 1b)", "setting": "TrkB", "value": -0.492}, {"measurement": "affinity to TrkB relative to other antidepressants (fluoxetine, ketamine)", "setting": "TrkB; higher than other antidepressants", "value": "1,000 fold"}, {"measurement": "6d: Mean (spinogenesis, spine density)", "setting": "[1]; WT neurons, vehicle mean 5.7", "value": 10.5}, {"measurement": "6d: Mean Diff. (vehicle vs. treatment), Bonferroni's multiple comparisons test", "setting": "[1]; WT:vehicle minus WT:treatment", "value": -4.8}, {"measurement": "6d: Mean (spinogenesis, spine density)", "setting": "[1]; [2]", "value": 7}, {"measurement": "6d: Mean Diff. (vehicle vs. treatment), Bonferroni's multiple comparisons test", "setting": "[1]; [3]", "value": -0.45}, {"measurement": "spine density", "setting": "[1]", "value": "increase spine density"}]}
{"compound": "CCN(CC)C(=O)C1C=C2c3cccc4[nH]cc(c34)CC2N(C)C1", "note": "(stereo not drawn) [LSD, lysergic acid diethylamide]", "values": [{"measurement": "potentiation of BDNF effect on TrkB dimerization", "setting": "TrkB (WT) dimerization; BDNF 0.1 ng ml^−1", "value": "potentiates the effects of very low concentrations of BDNF"}, {"measurement": "Group mean (Mean 2; Control:Vehicle = 100), fig 4f", "setting": "TrkB (WT) dimerization; LSD 1nM with BDNF 0.1ng/ml", "value": 198.9}, {"measurement": "Group mean (Mean 2; Vehicle:vehicle = 100), fig 4d", "setting": "TrkB (WT) dimerization; LSD 1 nM with M100907", "value": 146.3}, {"measurement": "Group mean (Mean 2; Control:Vehicle = 100), fig 4f", "setting": "TrkB (WT) dimerization; LSD 1nM, Vehicle (no BDNF)", "value": 131.4}, {"measurement": "Group mean (Mean 2; Vehicle:vehicle = 100), fig 4d", "setting": "TrkB (WT) dimerization; LSD 1 nM, Vehicle (no M100907)", "value": 129.7}, {"measurement": "Group mean (Mean 2; Vehicle:vehicle = 100), fig 4d", "setting": "TrkB (WT) dimerization; LSD 10 nM with M100907", "value": 148}, {"measurement": "Group mean (Mean 2; Vehicle:vehicle = 100), fig 4d", "setting": "TrkB (WT) dimerization; LSD 10 nM, Vehicle (no M100907)", "value": 146.6}, {"measurement": "Group mean (Mean 2; Vehicle:vehicle = 100), fig 4d", "setting": "TrkB (WT) dimerization; LSD 100 nM with M100907", "value": 153.7}, {"measurement": "Group mean (Mean 2; Vehicle:vehicle = 100), fig 4d", "setting": "TrkB (WT) dimerization; LSD 100 nM, Vehicle (no M100907)", "value": 151.3}, {"measurement": "Group mean (Mean 2; Vehicle:vehicle = 100), fig 4d", "setting": "TrkB (WT) dimerization; LSD 1 µM with M100907", "value": 177.5}, {"measurement": "Group mean (Mean 2; Vehicle:vehicle = 100), fig 4d", "setting": "TrkB (WT) dimerization; LSD 1 µM, Vehicle (no M100907)", "value": 148.9}, {"measurement": "TrkB dimerization time course, group mean (time 0 = 100)", "setting": "TrkB (WT) dimerization; time 15", "value": 195}, {"measurement": "TrkB dimerization time course, group mean (time 0 = 100)", "setting": "TrkB (WT) dimerization; time 60", "value": 250.1}, {"measurement": "TrkB dimerization time course, group mean (time 0 = 100)", "setting": "TrkB (WT) dimerization; time 120", "value": 213}, {"measurement": "TrkB dimerization time course, group mean (time 0 = 100)", "setting": "TrkB (WT) dimerization; time 240", "value": 184.6}, {"measurement": "TrkB dimerization time course, group mean (time 0 = 100)", "setting": "TrkB (WT) dimerization; time 480", "value": 101}, {"measurement": "TrkB dimerization", "setting": "TrkB (WT) dimerization", "value": "fast and long-lasting increase in dimerization"}, {"measurement": "TrkB dimerization (PCA), group mean (vehicle = 100)", "setting": "TrkB (WT) dimerization; 1nM", "value": 126.2}, {"measurement": "TrkB dimerization (PCA), group mean (vehicle = 100)", "setting": "TrkB (WT) dimerization; 10nM", "value": 166.6}, {"measurement": "TrkB dimerization (PCA), group mean (vehicle = 100)", "setting": "TrkB (WT) dimerization; 100nM", "value": 191.5}, {"measurement": "TrkB dimerization (PCA), group mean (vehicle = 100)", "setting": "TrkB (WT) dimerization; 1uM", "value": 201.7}, {"measurement": "Group mean (Mean 2; Vehicle:Vehicle = 100), fig 4e", "setting": "TrkB (WT) dimerization; treatment alone (other factor Vehicle)", "value": 209.8}, {"measurement": "Group mean (Mean 2; Vehicle:Vehicle = 100), fig 4e", "setting": "TrkB (WT) dimerization; with TrkB.FC", "value": 119.5}, {"measurement": "Ki", "setting": "TrkB", "value": "3.38 ± 1.39", "unit": "nM"}, {"measurement": "Bmax (best-fit, 1b)", "setting": "TrkB", "value": 104.9}, {"measurement": "h (best-fit, 1b)", "setting": "TrkB", "value": -0.5005}, {"measurement": "6e: Mean Diff. (Vehicle:Vehicle vs. treatment), Bonferroni's multiple comparisons test", "setting": "[1]; LSD together with M100907", "value": -7.65}, {"measurement": "6e: Mean (spinogenesis, spine density)", "setting": "[1]; LSD together with M100907", "value": 14.7}, {"measurement": "6e: Mean Diff. (Vehicle:Vehicle vs. treatment), Bonferroni's multiple comparisons test", "setting": "[1]; LSD together with TrkB.FC", "value": 0.25}, {"measurement": "6e: Mean (spinogenesis, spine density)", "setting": "[1]; LSD together with TrkB.FC", "value": 6.8}, {"measurement": "6d: Mean (spinogenesis, spine density)", "setting": "[1]; WT neurons, vehicle mean 5.7", "value": 13}, {"measurement": "6d: Mean Diff. (vehicle vs. treatment), Bonferroni's multiple comparisons test", "setting": "[1]; WT:vehicle minus WT:treatment", "value": -7.3}, {"measurement": "6d: Mean (spinogenesis, spine density)", "setting": "[1]; [2]", "value": 7.5}, {"measurement": "6d: Mean Diff. (vehicle vs. treatment), Bonferroni's multiple comparisons test", "setting": "[1]; [3]", "value": -0.95}, {"measurement": "spine density", "setting": "[1]", "value": "increase spine density"}, {"measurement": "6e: Mean Diff. (Vehicle:Vehicle vs. treatment), Bonferroni's multiple comparisons test", "setting": "[1]; substance alone (with vehicle)", "value": -7.6}, {"measurement": "6e: Mean (spinogenesis, spine density)", "setting": "[1]; substance alone (with vehicle)", "value": 14.65}]}
{"compound": "COc1cccc([C@H](O)C2CCN(CCc3ccc(F)cc3)CC2)c1OC", "note": "[M100907]", "values": [{"measurement": "Group mean (Mean 2; Vehicle:vehicle = 100), fig 4d", "setting": "TrkB (WT) dimerization; M100907 alone (M100907:vehicle)", "value": 100}, {"measurement": "effect of pretreatment on LSD- and BDNF-induced TrkB dimerization", "setting": "TrkB (WT) dimerization; ketanserin 100 nM, M100907 100 nM or TrkB.FC 200 ng ml^−1, 10 min before", "value": "fails to prevent the effects of LSD and BDNF on TrkB dimerization"}, {"measurement": "displacement of ^3H-LSD from TrkB", "setting": "TrkB; 1 nM to 10 µM of drug", "value": "fail to displace LSD binding to TrkB"}, {"measurement": "Fit status, specific binding with Hill slope", "setting": "TrkB; ext fig 1f", "value": "Ambiguous"}, {"measurement": "Bmax (specific binding with Hill slope, best-fit)", "setting": "TrkB; [4]", "value": 94.18}, {"measurement": "h (Hill slope, best-fit)", "setting": "TrkB; [4]", "value": "~ 1.901"}, {"measurement": "effect of pretreatment on spinogenic effect of LSD", "setting": "[1]; TrkB.FC 200 ng ml^−1 or M100907 100 nM", "value": "not M100907 prevented the spinogenic effect of LSD"}, {"measurement": "6e: Mean Diff. (Vehicle:Vehicle vs. treatment), Bonferroni's multiple comparisons test", "setting": "[1]; substance alone (with vehicle)", "value": -2.8}, {"measurement": "6e: Mean (spinogenesis, spine density)", "setting": "[1]; substance alone (with vehicle)", "value": 9.85}]}
